Assay results as given in patent publication US20250353891A1 (MEDIMMUNE LIMITED, priority 2022, published 2025).
Starred links: 1 amine or outer side, 2 acyl side, 3 side chain; linkers in the order of their positions; H or OH if unused. Non-standard residues stand in square brackets, D forms with d. Residues, ends and D or L forms follow the SMILES beside them. Groups on a side chain read outwards from the residue. *: point of attachment. C20 diacid = O=C(O)CCCCCCCCCCCCCCCCCCC(=O)*; C18 diacid = O=C(O)CCCCCCCCCCCCCCCCC(=O)*; γGlu = O=C(O)[C@H](CCC(=O)[*:2])N[*:1]; αMeF = C[C@](N)(Cc1ccccc1)C(=O)O; AEEA = NCCOCCOCC(=O)O; Aib = CC(C)(N)C(=O)O

Tests used:
[1] = target: human glucagon receptor (hGCGR) (Homo sapiens, UniProt P47871); test: cAMP production (HTRF) in CHO cells expressing hGCGR; assay type: cell-based; design: expressed in transfected cells; details: Table 6, peptides modified at position 17; cAMP in CHO hGCGR cells; geometric mean; read-out: hGluc-R EC50
Chain of human glucagon receptor (hGCGR) (P47871 26-477): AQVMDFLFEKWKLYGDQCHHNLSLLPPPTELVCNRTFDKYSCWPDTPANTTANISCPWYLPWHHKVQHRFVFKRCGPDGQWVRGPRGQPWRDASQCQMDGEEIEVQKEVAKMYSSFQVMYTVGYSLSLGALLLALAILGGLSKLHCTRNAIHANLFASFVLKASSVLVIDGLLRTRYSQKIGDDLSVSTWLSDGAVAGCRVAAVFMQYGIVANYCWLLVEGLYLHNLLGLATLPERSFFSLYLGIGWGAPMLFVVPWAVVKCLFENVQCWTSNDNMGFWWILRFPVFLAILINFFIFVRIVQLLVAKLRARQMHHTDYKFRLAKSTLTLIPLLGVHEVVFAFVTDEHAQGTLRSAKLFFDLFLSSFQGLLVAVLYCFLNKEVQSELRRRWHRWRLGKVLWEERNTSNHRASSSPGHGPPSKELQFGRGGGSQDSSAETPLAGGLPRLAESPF
Summary of the method: (§1)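 Cells were resuspended in assay buffer at batch-optimized density, typically 1×10^5 cells/mL for hGLP-1R and 2×10^5 cells/mL for hGCGR. After 30 min incubation at room temperature with compound, cAMP was measured by two-step HTRF. EC50 values came from 4-parameter logistic fits of % Delta F.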

[2] = target: human GLP-1 receptor (hGLP-1R) (Homo sapiens, UniProt P43220); test: cAMP production (HTRF) in CHO cells expressing hGLP-1R; assay type: cell-based; design: expressed in transfected cells; details: for EC50: Table 6, peptides modified at position 17, cAMP in CHO hGLP-1R cells, geometric mean, read-out: hGLP-1R EC50; for % Relative Potency Ratio: Table 6, % GLP-1R activity relative to GLP-1 / % GlucR activity relative to glucagon
Chain of human GLP-1 receptor (hGLP-1R) (P43220 24-463): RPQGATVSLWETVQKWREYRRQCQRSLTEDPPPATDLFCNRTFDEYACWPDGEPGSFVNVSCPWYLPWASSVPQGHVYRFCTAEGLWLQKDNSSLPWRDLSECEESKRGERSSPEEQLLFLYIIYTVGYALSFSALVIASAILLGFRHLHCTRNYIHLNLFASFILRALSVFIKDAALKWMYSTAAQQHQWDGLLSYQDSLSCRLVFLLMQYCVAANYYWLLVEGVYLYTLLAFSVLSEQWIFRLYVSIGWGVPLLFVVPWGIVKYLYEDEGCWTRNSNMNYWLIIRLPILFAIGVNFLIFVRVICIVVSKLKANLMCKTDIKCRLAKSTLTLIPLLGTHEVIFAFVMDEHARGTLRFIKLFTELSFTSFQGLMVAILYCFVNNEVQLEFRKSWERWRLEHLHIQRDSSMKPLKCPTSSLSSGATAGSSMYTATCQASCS
Summary of the method: as §1

SMILES | EC50 [1] [nM] | EC50 [2] [nM] | % Relative Potency Ratio [2]
CC(C)C[C@H](NC(=O)[C@H](Cc1c[nH]c2ccccc12)NC(=O)[C@H](CCC(N)=O)NC(=O)[C@@H](NC(=O)[C@H](Cc1ccccc1)NC(=O)[C@H](CC(=O)O)NC(=O)[C@H](CCCNC(=N)N)NC(=O)[C@H](C)NC(=O)[C@H](CCCNC(=N)N)NC(=O)[C@H](CCCCNC(=O)COCCOCCNC(=O)COCCOCCNC(=O)CC[C@H](NC(=O)CCCCCCCCCCCCCCCCC(=O)O)C(=O)O)NC(=O)[C@@H](NC(=O)[C@H](CC(=O)O)NC(=O)[C@H](CC(C)C)NC(=O)[C@](C)(Cc1ccccc1)NC(=O)[C@H](CCCCN)NC(=O)[C@H](CO)NC(=O)[C@@H](NC(=O)[C@H](CC(=O)O)NC(=O)[C@H](CO)NC(=O)[C@@H](NC(=O)[C@H](Cc1ccccc1)NC(=O)[C@@H](NC(=O)CNC(=O)[C@H](CCC(N)=O)NC(=O)C(C)(C)NC(=O)[C@@H](N)Cc1c[nH]cn1)[C@@H](C)O)[C@@H](C)O)C(C)C)[C@@H](C)O)C(C)C)C(=O)N[C@@H](CC(C)C)C(=O)N[C@@H](CCCNC(=N)N)C(=O)NC(C)(C)C(=O)N[C@@H](C)C(=O)O [Peptide 501] (H-H[Aib]QGTFTSDVSK[αMeF]LDTK([AEEA-AEEA-γGlu-C18 diacid])RARDFVQWLLR[Aib]A-OH; N-terminus assumed) | 0.0756 | 0.0265 | 5.6
CC(C)C[C@H](NC(=O)[C@H](Cc1c[nH]c2ccccc12)NC(=O)[C@H](CCC(N)=O)NC(=O)[C@@H](NC(=O)[C@H](Cc1ccccc1)NC(=O)[C@H](CC(=O)O)NC(=O)[C@H](CCCNC(=N)N)NC(=O)[C@H](C)NC(=O)[C@H](CCCNC(=N)N)NC(=O)[C@H](CCCCNC(=O)COCCOCCNC(=O)COCCOCCNC(=O)CC[C@H](NC(=O)CCCCCCCCCCCCCCCCCCC(=O)O)C(=O)O)NC(=O)[C@@H](NC(=O)[C@H](CC(=O)O)NC(=O)[C@H](CC(C)C)NC(=O)[C@](C)(Cc1ccccc1)NC(=O)[C@H](CCCCN)NC(=O)[C@H](CO)NC(=O)[C@@H](NC(=O)[C@H](CC(=O)O)NC(=O)[C@H](CO)NC(=O)[C@@H](NC(=O)[C@H](Cc1ccccc1)NC(=O)[C@@H](NC(=O)CNC(=O)[C@H](CCC(N)=O)NC(=O)C(C)(C)NC(=O)[C@@H](N)Cc1c[nH]cn1)[C@@H](C)O)[C@@H](C)O)C(C)C)[C@@H](C)O)C(C)C)C(=O)N[C@@H](CC(C)C)C(=O)N[C@@H](CCCNC(=N)N)C(=O)NC(C)(C)C(=O)N[C@@H](C)C(=O)O [Peptide 502] (H-H[Aib]QGTFTSDVSK[αMeF]LDTK([AEEA-AEEA-γGlu-C20 diacid])RARDFVQWLLR[Aib]A-OH; N-terminus assumed) | 0.175 | 0.0821 | 4.2
CC(C)C[C@H](NC(=O)[C@H](Cc1c[nH]c2ccccc12)NC(=O)[C@H](CCCNC(=N)N)NC(=O)[C@@H](NC(=O)[C@H](Cc1ccccc1)NC(=O)[C@H](CC(=O)O)NC(=O)[C@H](CCC(N)=O)NC(=O)[C@H](C)NC(=O)[C@H](CCCNC(=N)N)NC(=O)[C@H](CCCCNC(=O)COCCOCCNC(=O)COCCOCCNC(=O)CC[C@H](NC(=O)CCCCCCCCCCCCCCCCCCC(=O)O)C(=O)O)NC(=O)[C@@H](NC(=O)[C@H](CC(=O)O)NC(=O)[C@H](CC(C)C)NC(=O)[C@](C)(Cc1ccccc1)NC(=O)[C@H](CCCCN)NC(=O)[C@H](CO)NC(=O)[C@@H](NC(=O)[C@H](CC(=O)O)NC(=O)[C@H](CO)NC(=O)[C@@H](NC(=O)[C@H](Cc1ccccc1)NC(=O)[C@@H](NC(=O)CNC(=O)[C@H](CCC(N)=O)NC(=O)C(C)(C)NC(=O)[C@@H](N)Cc1c[nH]cn1)[C@@H](C)O)[C@@H](C)O)C(C)C)[C@@H](C)O)C(C)C)C(=O)N[C@@H](CC(C)C)C(=O)N[C@@H](CCC(=O)O)C(=O)NC(C)(C)C(=O)N[C@@H](CCCCN)C(=O)O [Peptide 503] | 0.0849 | 0.0812 | 2.1
CC(C)C[C@H](NC(=O)[C@H](Cc1c[nH]c2ccccc12)NC(=O)[C@H](CCCNC(=N)N)NC(=O)[C@@H](NC(=O)[C@H](Cc1ccccc1)NC(=O)[C@H](CC(=O)O)NC(=O)[C@H](CCC(N)=O)NC(=O)[C@H](C)NC(=O)[C@H](CCCNC(=N)N)NC(=O)[C@H](CCCCNC(=O)COCCOCCNC(=O)COCCOCCNC(=O)CC[C@H](NC(=O)CCCCCCCCCCCCCCCCCCC(=O)O)C(=O)O)NC(=O)[C@H](CO)NC(=O)[C@H](CCC(=O)O)NC(=O)[C@H](CC(C)C)NC(=O)[C@](C)(Cc1ccccc1)NC(=O)[C@H](CCCCN)NC(=O)[C@H](CO)NC(=O)[C@@H](NC(=O)[C@H](CC(=O)O)NC(=O)[C@H](CO)NC(=O)[C@@H](NC(=O)[C@H](Cc1ccccc1)NC(=O)[C@@H](NC(=O)CNC(=O)[C@H](CCC(N)=O)NC(=O)C(C)(C)NC(=O)[C@@H](N)Cc1c[nH]cn1)[C@@H](C)O)[C@@H](C)O)C(C)C)C(C)C)C(=O)N[C@@H](CC(C)C)C(=O)N[C@@H](CCC(=O)O)C(=O)NC(C)(C)C(=O)N[C@@H](CCCCN)C(=O)O [Peptide 504] | 0.551 | 0.124 | 8.8
CC(C)C[C@H](NC(=O)[C@H](Cc1c[nH]c2ccccc12)NC(=O)[C@H](CCC(N)=O)NC(=O)[C@@H](NC(=O)[C@H](Cc1ccccc1)NC(=O)[C@H](CC(=O)O)NC(=O)[C@H](CCC(N)=O)NC(=O)[C@H](C)NC(=O)[C@H](CCCNC(=N)N)NC(=O)[C@H](CCCCNC(=O)COCCOCCNC(=O)COCCOCCNC(=O)CC[C@H](NC(=O)CCCCCCCCCCCCCCCCCCC(=O)O)C(=O)O)NC(=O)[C@@H](NC(=O)[C@H](CC(=O)O)NC(=O)[C@H](CC(C)C)NC(=O)[C@](C)(Cc1ccccc1)NC(=O)[C@H](CCCCN)NC(=O)[C@H](CO)NC(=O)[C@@H](NC(=O)[C@H](CC(=O)O)NC(=O)[C@H](CO)NC(=O)[C@@H](NC(=O)[C@H](Cc1ccccc1)NC(=O)[C@@H](NC(=O)CNC(=O)[C@H](CCC(N)=O)NC(=O)C(C)(C)NC(=O)[C@@H](N)Cc1c[nH]cn1)[C@@H](C)O)[C@@H](C)O)C(C)C)[C@@H](C)O)C(C)C)C(=O)N[C@@H](CC(C)C)C(=O)N[C@@H](CCC(=O)O)C(=O)NC(C)(C)C(=O)N[C@@H](CCCCN)C(N)=O [Peptide 505] (H-H[Aib]QGTFTSDVSK[αMeF]LDTK([AEEA-AEEA-γGlu-C20 diacid])RAQDFVQWLLE[Aib]K-NH2) | 0.191 | 0.0421 | 9.0
CC(C)C[C@H](NC(=O)[C@H](Cc1c[nH]c2ccccc12)NC(=O)[C@H](C)NC(=O)[C@@H](NC(=O)[C@H](Cc1ccccc1)NC(=O)[C@H](CC(=O)O)NC(=O)[C@H](CCCNC(=N)N)NC(=O)[C@H](C)NC(=O)[C@H](CCCNC(=N)N)NC(=O)[C@H](CCCCNC(=O)COCCOCCNC(=O)COCCOCCNC(=O)CC[C@H](NC(=O)CCCCCCCCCCCCCCCCCCC(=O)O)C(=O)O)NC(=O)[C@@H](NC(=O)[C@H](CC(=O)O)NC(=O)[C@H](CC(C)C)NC(=O)[C@](C)(Cc1ccccc1)NC(=O)[C@H](CCCCN)NC(=O)[C@H](CO)NC(=O)[C@@H](NC(=O)[C@H](CC(=O)O)NC(=O)[C@H](CO)NC(=O)[C@@H](NC(=O)[C@H](Cc1ccccc1)NC(=O)[C@@H](NC(=O)CNC(=O)[C@H](CCC(N)=O)NC(=O)C(C)(C)NC(=O)[C@@H](N)Cc1c[nH]cn1)[C@@H](C)O)[C@@H](C)O)C(C)C)[C@@H](C)O)C(C)C)C(=O)N[C@@H](CC(C)C)C(=O)N[C@@H](CCC(=O)O)C(=O)NC(C)(C)C(=O)NCC(=O)O [Peptide 506] (H-H[Aib]QGTFTSDVSK[αMeF]LDTK([AEEA-AEEA-γGlu-C20 diacid])RARDFVAWLLE[Aib]G-OH; N-terminus assumed) | 0.149 | 0.162 | 1.8
CC(C)C[C@H](NC(=O)[C@H](Cc1c[nH]c2ccccc12)NC(=O)[C@H](C)NC(=O)[C@@H](NC(=O)[C@H](Cc1ccccc1)NC(=O)[C@H](CC(=O)O)NC(=O)[C@H](CCCNC(=N)N)NC(=O)[C@H](C)NC(=O)[C@H](CCCNC(=N)N)NC(=O)[C@H](CCCCNC(=O)COCCOCCNC(=O)COCCOCCNC(=O)CC[C@H](NC(=O)CCCCCCCCCCCCCCCCCCC(=O)O)C(=O)O)NC(=O)[C@@H](NC(=O)[C@H](CC(=O)O)NC(=O)[C@H](CC(C)C)NC(=O)[C@](C)(Cc1ccccc1)NC(=O)[C@H](CCCCN)NC(=O)[C@H](CO)NC(=O)[C@@H](NC(=O)[C@H](CC(=O)O)NC(=O)[C@H](CO)NC(=O)[C@@H](NC(=O)[C@H](Cc1ccccc1)NC(=O)[C@@H](NC(=O)CNC(=O)[C@H](CCC(N)=O)NC(=O)C(C)(C)NC(=O)[C@@H](N)Cc1c[nH]cn1)[C@@H](C)O)[C@@H](C)O)C(C)C)[C@@H](C)O)C(C)C)C(=O)N[C@@H](CC(C)C)C(=O)N[C@@H](CCC(=O)O)C(=O)NC(C)(C)C(=O)NCC(N)=O [Peptide 507] | 0.0866 | 0.0529 | 3.2
CC(C)C[C@H](NC(=O)[C@H](Cc1c[nH]c2ccccc12)NC(=O)[C@H](CCCNC(=N)N)NC(=O)[C@@H](NC(=O)[C@H](Cc1ccccc1)NC(=O)[C@H](CC(=O)O)NC(=O)[C@H](CCC(N)=O)NC(=O)[C@H](C)NC(=O)[C@H](CCCNC(=N)N)NC(=O)[C@H](CCCCNC(=O)COCCOCCNC(=O)COCCOCCNC(=O)CC[C@H](NC(=O)CCCCCCCCCCCCCCCCCCC(=O)O)C(=O)O)NC(=O)[C@H](CO)NC(=O)[C@H](CCC(=O)O)NC(=O)[C@H](CC(C)C)NC(=O)[C@](C)(Cc1ccccc1)NC(=O)[C@H](CCCCN)NC(=O)[C@H](CO)NC(=O)[C@@H](NC(=O)[C@H](CC(=O)O)NC(=O)[C@H](CO)NC(=O)[C@@H](NC(=O)[C@H](Cc1ccccc1)NC(=O)[C@@H](NC(=O)CNC(=O)[C@H](CCC(N)=O)NC(=O)C(C)(C)NC(=O)[C@@H](N)Cc1c[nH]cn1)[C@@H](C)O)[C@@H](C)O)C(C)C)C(C)C)C(=O)N[C@H](C(=O)N[C@@H](CCC(=O)O)C(=O)NC(C)(C)C(=O)NCC(N)=O)C(C)C [Peptide 508] (H-H[Aib]QGTFTSDVSK[αMeF]LESK([AEEA-AEEA-γGlu-C20 diacid])RAQDFVRWLVE[Aib]G-NH2) | 2.8 | 0.0679 | 81.6
